{"source": "patent US20150276760A1", "about": "“Method for Screening a Compound Capable of Inhibiting the Notch1 Transcriptional Activity” (INSERM (institut National de la Sante et de la Recherche …, priority 2012, published 2015)", "key": {"[1]": {"tested_on": "ICN1-induced activation of p6XCBS-luc", "experiment": "Notch-responsive reporter assay (p6XCBS-luc) in HeLa cells", "assay_type": "cell-based", "description": "HeLa cells were co-transfected with 1 μg of a Notch-responsive firefly luciferase reporter containing 6 CSL-binding sites (p6XCBS-luc), 100 ng of TK-Renilla-luciferase vector (transfection control) and various amount (0.1-0.3-1 μg) of the MigR1-ICN1 expression vector. Transfections were performed in 6-wells plates using JetPEI reagent (Polyplus) according to manufacturer's instruction. Firefly luciferase activity was measured 24 hours post-transfection and normalized to Renilla luciferase expression. The values in the figures are Relative Luciferase Units (RLU) represented as fold induction over the luciferase activity measured in the absence of ICN1 (cells transfected with p6XCBS-luc and an empty vector)."}, "[2]": {"tested_on": "Notch-induced HES1 transcription in U937 cells", "experiment": "Ligand (Delta-like 4)-mediated HES1 activation in U937 cells", "conditions": "recombinant DL-4 Notch ligand"}, "[3]": {"tested_on": "HES1, HEY1 and DTX1 expression in U937 cells", "experiment": "Notch-target gene expression in U937 cells without Notch activation (Q-RT-PCR)", "conditions": "TCP 1 mM, S2101 30 μM"}, "[4]": {"tested_on": "Notch-target genes in pre-T cells", "experiment": "ChIP in T-cell precursors from in vitro T-cell differentiation", "assay_type": "cell-based, human", "conditions": "GSI 5 μM, 2 days", "description": "For ChIP experiments, 6×10^7 cells were cross-linked for 10 min with 1% formaldehyde (sigma) at room temperature. The cross-linking reaction was stopped by adding glycine to a final concentration of 0.125 M for 10 min at room temperature. Cells were washed twice with cold PBS and incubated on ice for 7 min in 2 mL of buffer containing 15 mM Tris-HCl (pH 7.4), 0.3 M sucrose (sigma), 60 mM KCl, 15 mM NaCl, 5 mM MgCl2, 0.1 mM EGTA and 0.1% NP-40. Each cell suspension was then layered over 8 mL sucrose cushion (15 mM Tris-HCl, 1.2 M sucrose, 60 mM KCl, 15 mM NaCl, 5 mM MgCl2 and 0.1 mM EGTA) and centrifuged at 10.000 g for 20 min at 4° C. Nuclear pellet was lysed with 1 mL lysis buffer (50 mM Tris-HCl pH 8, 10 mM EDTA, 1% SDS) complemented with Protease Inhibitor Cocktail (Roche). […] DNA was extracted by phenol-chloroform, quantified using nanodrop and run on a 1% agarose gel to confirm DNA fragment size. […]\nCD34+ cells from human umbilical cord blood samples were sorted (Stemcell technologies) (≧95% purity) and cultured on OP9-DL1 stromal cells in αMEM media containing FLT3L (5 ng/ml), and IL7 (5 ng/ml) for 16 days. At day 16, most progenitors (˜90%) were engaged to the T-cell lineage (pre-T cells) as determined by the expression of CD5 and CD1a. pre-T-cells were cultured for 2 additional days on OP9-DL1 cells in presence or absence of GSI (5 μM)."}, "[5]": {"tested_on": "Notch-activation complex (ICN1-CSL-MAML1)", "experiment": "Immunopurification / coimmunoprecipitation from SupT1 nuclear extracts (western blot)", "design": "species or system human", "description": "After two step affinity chromatography, protein complexes containing both tagged-proteins were peptide eluted and analyzed by western blot. For endogenous protein immunoprecipitations, nuclear extracts (500 μg-1 mg) were incubated with antibodies (1-2 μg) for 4 hr, followed by addition of 10 μL protein G Sepharose beads (Fast flow, Sigma) for 45 min before washing five times with 800 μL of buffer B015 in spin columns (Pierce).\nCells were lysed in lysis buffer (50 mM Tris-HCl, 120 mM NaCl, 5 mM EDTA, 0.5% NP-40 and PMSF) and briefly sonicated. Cell lysates and immunoprecipitates were boiled in SDS sample buffer and resolved on a 7% SDS-PAGE gel (Biorad). Proteins were liquid-transferred (Biorad) to nitrocellulose membrane in transfer buffer (20% methanol, 25 mM Tris, 192 mM Glycine, 0.037% SDS) during 90 min at 100V."}, "[6]": {"tested_on": "ICN1-binding sites of Notch-target genes", "experiment": "Chromatin immunoprecipitation (ChIP) in SupT1 cells", "assay_type": "cell-based, human", "description": "For ChIP experiments, 6×10^7 cells were cross-linked for 10 min with 1% formaldehyde (sigma) at room temperature. The cross-linking reaction was stopped by adding glycine to a final concentration of 0.125 M for 10 min at room temperature. Cells were washed twice with cold PBS and incubated on ice for 7 min in 2 mL of buffer containing 15 mM Tris-HCl (pH 7.4), 0.3 M sucrose (sigma), 60 mM KCl, 15 mM NaCl, 5 mM MgCl2, 0.1 mM EGTA and 0.1% NP-40. Each cell suspension was then layered over 8 mL sucrose cushion (15 mM Tris-HCl, 1.2 M sucrose, 60 mM KCl, 15 mM NaCl, 5 mM MgCl2 and 0.1 mM EGTA) and centrifuged at 10.000 g for 20 min at 4° C. Nuclear pellet was lysed with 1 mL lysis buffer (50 mM Tris-HCl pH 8, 10 mM EDTA, 1% SDS) complemented with Protease Inhibitor Cocktail (Roche). Chromatin was sonicated to generate DNA-fragments of approximately 300 to 500 bp in an ultra sonicator water bath (Bioruptor, Diagenode) using ten cycles of 30 s/on and 30 s/off. After centrifugation at 13.000 g for 20 min, an aliquot of sonicated DNA was reverse-crosslinked by addition of 250 mM NaCl and incubation at 65° C. for 6 h. DNA was extracted by phenol-chloroform, quantified using nanodrop and run on a 1% agarose gel to confirm DNA fragment size. The antibodies were pre-bound to Invitogen Dynal magnetic beads (Protein A or G beads) in PBS containing BSA (5 mg/mL) and chromatin was pre-cleared with beads for 4 h at 4° C. Immunoprecipitation was performed using 20 μg of chromatin and 2-3 μg of antibody coupled to 15 μL of beads in ChIP buffer (20 mM Tri-HCl pH 8, 150 mM NaCl, 2 mM EDTA, and 1% Triton X-100) complemented with Protease Inhibitor Cocktail. After overnight incubation at 4° C., beads were washed 4 times with wash buffer 1 (20 mM Tri-HCl pH 8, 150 mM NaCl, 2 mM EDTA, 1% Triton X-100 and 0.1% SDS) and 4 times with wash buffer 2 (20 mM Tri-HCl pH 8, 500 mM NaCl, 2 mM EDTA, 1% Triton X-100 and 0.1% SDS) using the DynaMag-2 magnet (Invitogen). Elution of immunoprecipitated DNA was performed in buffer containing 1% SDS and 100 mM NaHCO3. Crosslinking was reversed by incubation at 65° C. and proteins were degraded by addition of proteinase K (Sigma). Eluted DNA and 10% of input DNA were purified using phenol-chloroform extraction followed by isopropanol precipitation or using QIAquick PCR purification (Qiagen), according to the manufacturer instructions. Resultant DNA was dissolved in 60 μL of water containing 10 mM Tris-HCl pH 8. […] PCR measurements were performed in duplicate."}, "monoamine oxidases": {"tested_on": "monoamine oxidases", "conditions": "compared with TCP; cited from earlier work"}, "[7]": {"tested_on": "Notch-responsive genes in SupT1 cells", "experiment": "Notch-responsive gene expression in GSI-treated SupT1 cells"}, "[8]": {"tested_on": "Notch-target genes in T-ALL cells", "experiment": "Notch-target gene expression in T-ALL cell lines (Q-RT-PCR)"}, "SupT1 xenograft tumor": {"tested_on": "SupT1 xenograft tumor", "experiment": "Subcutaneous xenograft tumor model", "assay_type": "in vivo", "conditions": "SupT1 cells expressing shRNA, SCID mice", "description": "Female SCID mice (C.B.-17/IcrHan™Hsd-Prkdcscid) were obtained from Harlan Laboratories (Gannat, France). Animals were maintained in specific pathogen-free animal housing at the Center for Exploration and Experimental Functional Research (CERFE, Evry, France) animal facility. […] 72 hours post-infection, cells were selected with 2 μg/mL puromycin for 72 hours. At this point, the cells were maintained in fresh media for 2 days prior to injection into animals. Prior injection, cells were washed and resuspended in DMEM: 50% Matrigel (BD Pharmingen). 5×10^6 cells […] were injected to each mouse by subcutaneous route in the right flank (n=5 per group). Tumor volume was evaluated by measuring tumor diameters, with a calliper, three times a week during the follow-up period (23 days). The formula TV (mm^3)=[length (mm)×width (mm)2]/2 was used, where the length and the width are the longest and the shortest diameters of the tumor, respectively."}, "[9]": {"tested_on": "SupT1, HPB-ALL, TALL1 and DND41", "experiment": "Cell count proliferation assay of T-ALL cell lines", "assay_type": "cell-based, human", "conditions": "shRNA knockdown", "description": "(§1) The following antibodies were used for flow cytometry: CD127-PE clone R34.34 and the IgG1-PE (from Beckman Coulter). Flow cytometry was performed on a BD FACSCalibur or MACSQUANT cytometer (Miltenyi). For cell proliferation assays, cells were plated at 2×10^5/mL in triplicate. Proliferation of shRNA-transduced T-ALL cells was followed by cell counting using the MACSQUANT cytometer (gated on live cells). Flow-cytometric cell cycle analysis was performed by staining DNA content of T-ALL cell lines using DAPI. SupT1 cells were also analyzed with EdU-DAPI staining to precisely define the percentage of cells at the G0/G1 phase. […] Cells were washed with PBS and fixed with PBS-4% PFA for 10 minutes at room temperature. After permeabilization, EdU incorporation was detected following the manufacturer's instructions (Click-iT, invitrogen) and total DNA content was measured using DAPI."}, "T-ALL cell lines": {"tested_on": "T-ALL cell lines", "experiment": "Flow-cytometric cell cycle analysis of T-ALL cell lines", "assay_type": "cell-based, human", "conditions": "shRNA knockdown", "description": "as §1"}}, "data": [{"compound": "N[C@@H]1C[C@H]1c1ccccc1", "note": "(racemic) [TCP, tranylcypromine]", "values": [{"measurement": "ICN1-induced activation of the Notch-responsive reporter (p6XCBS-luc)", "setting": "[1]", "value": "impaired"}, {"measurement": "Notch-induced HES1 activation", "setting": "[2]", "value": "reduced HES1 activation"}, {"measurement": "HES1, HEY1 and DTX1 expression", "setting": "[3]", "value": "increased"}]}, {"compound": "C[C@H](NC(=O)Cc1cc(F)cc(F)c1)C(=O)N[C@H]1N=C(c2ccccc2)c2ccccc2N(C)C1=O", "note": "[GSI]", "values": [{"measurement": "RNAPII recruitment to Notch-target genes", "setting": "[4]", "value": "impaired"}, {"measurement": "MAML1 association with CSL, LSD1, PB1 and BRG1", "setting": "[5]; SupT1, GSI 500 nM, 8 hours", "value": "severely altered"}, {"measurement": "binding of PHF8 and AF4p12 to MAML1", "setting": "[5]; SupT1, GSI 500 nM, 8 hours", "value": "only marginally reduced"}, {"measurement": "LSD1 binding to endogenous MAML1 and ICN1", "setting": "[5]; SupT1 cells treated with DMSO or GSI", "value": "strongly reduced"}, {"measurement": "H3K27me2 mark at IL7R and DTX1 loci", "setting": "[6]; SupT1", "value": "increase"}, {"measurement": "CSL and LSD1 binding", "setting": "[6]; SupT1, ICN1-binding sites", "value": "did not significantly affect"}, {"measurement": "ICN1 and MAML1 on chromatin", "setting": "[6]; SupT1, ICN1-binding sites", "value": "released"}, {"measurement": "recruitment of PBAF, PHF8 and AF4p12", "setting": "[6]; SupT1, ICN1-binding sites", "value": "reduced"}]}, {"compound": "NC1CC1c1cc(F)cc(F)c1OCc1ccccc1", "note": "(stereo not shown) [S2101]", "values": [{"measurement": "effect on monoamine oxidases", "setting": "monoamine oxidases", "value": "much weaker effect"}, {"measurement": "Notch-induced HES1 activation", "setting": "[2]", "value": "reduced HES1 activation"}, {"measurement": "expression of Notch-responsive genes", "setting": "[7]", "value": "depression of Notch-responsive genes"}, {"measurement": "expression of the control S14 gene", "setting": "[7]", "value": "not affected"}, {"measurement": "Notch-target genes expression on LSD1 inhibitor treatment", "setting": "[8]", "value": "dose-dependent repression"}, {"measurement": "HES1, HEY1 and DTX1 expression", "setting": "[3]", "value": "increased"}]}, {"compound": "PHF8 shRNA: shRNA targeting PHF8, SEQ ID NO: 1; pSUPER retroviral vector (GCTTCATGATCGAGTGTGACA)", "values": [{"measurement": "tumor establishment", "setting": "SupT1 xenograft tumor", "value": "did not establish tumors"}, {"measurement": "proliferation", "setting": "[9]", "value": "marked reduction"}, {"measurement": "Notch-mediated expression of c-MYC", "setting": "[8]; shRNA knockdown", "value": "suppressed"}, {"measurement": "cell-cycle progression in MOLT4 and H9", "setting": "T-ALL cell lines; Notch-independent T-ALL cell lines", "value": "did not significantly affect"}, {"measurement": "cell cycle in NOTCH1-dependent T-ALL cells", "setting": "T-ALL cell lines", "value": "G0/G1 cell-cycle arrest"}]}]}
